Measurements published in PMC3517155 (ChemMedChem, 2009).

Key:
[1] = target: SERT (Rattus norvegicus, UniProt P31652); experiment: SERT uptake, inhibition of [3H]5-HT uptake in rat cerebral cortex; format: biochemical; details: for Selectivity ratio SERT uptake/DAT uptake: ratio of Ki values
[2] = target: T1, DAT (Rattus norvegicus, UniProt P23977); experiment: DAT uptake, inhibition of [3H]DA uptake in rat striatum; format: biochemical; details: for Selectivity ratio DAT uptake/DAT binding: ratio of Ki values
[3] = target: T1, DAT; experiment: DAT binding, inhibition of [3H]WIN 35,428 binding in rat striatum
[4] = tested on: NET; experiment: NET uptake, inhibition of [3H]NE uptake in rat hippocampus; format: biochemical; details: ratio of Ki values
[5] = tested on: Swiss-Webster mice; experiment: Locomotor activity in mice; details: i.p., 1 mg/kg
[6] = tested on: rats trained to discriminate 10 mg/kg cocaine from saline; experiment: Cocaine drug discrimination in rats; details: at 10 and 30 mg/kg i.p.

Chain of SERT (P31652 whole entry): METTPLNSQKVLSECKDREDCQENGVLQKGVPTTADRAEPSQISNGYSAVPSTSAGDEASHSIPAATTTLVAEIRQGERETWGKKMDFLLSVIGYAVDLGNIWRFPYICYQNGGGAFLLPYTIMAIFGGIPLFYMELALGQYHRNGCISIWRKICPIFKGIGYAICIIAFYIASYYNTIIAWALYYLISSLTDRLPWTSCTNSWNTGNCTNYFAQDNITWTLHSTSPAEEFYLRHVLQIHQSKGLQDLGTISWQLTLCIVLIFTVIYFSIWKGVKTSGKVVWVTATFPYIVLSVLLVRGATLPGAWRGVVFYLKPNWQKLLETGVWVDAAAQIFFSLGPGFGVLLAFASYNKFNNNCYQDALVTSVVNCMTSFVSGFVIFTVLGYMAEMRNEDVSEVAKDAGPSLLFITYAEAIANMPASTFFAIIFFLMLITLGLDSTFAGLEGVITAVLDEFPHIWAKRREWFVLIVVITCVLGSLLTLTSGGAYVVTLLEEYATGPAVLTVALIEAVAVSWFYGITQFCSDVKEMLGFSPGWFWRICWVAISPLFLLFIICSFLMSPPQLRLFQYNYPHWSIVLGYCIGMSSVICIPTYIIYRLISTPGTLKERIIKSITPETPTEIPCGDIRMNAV
T1 sequence (P23977 whole entry): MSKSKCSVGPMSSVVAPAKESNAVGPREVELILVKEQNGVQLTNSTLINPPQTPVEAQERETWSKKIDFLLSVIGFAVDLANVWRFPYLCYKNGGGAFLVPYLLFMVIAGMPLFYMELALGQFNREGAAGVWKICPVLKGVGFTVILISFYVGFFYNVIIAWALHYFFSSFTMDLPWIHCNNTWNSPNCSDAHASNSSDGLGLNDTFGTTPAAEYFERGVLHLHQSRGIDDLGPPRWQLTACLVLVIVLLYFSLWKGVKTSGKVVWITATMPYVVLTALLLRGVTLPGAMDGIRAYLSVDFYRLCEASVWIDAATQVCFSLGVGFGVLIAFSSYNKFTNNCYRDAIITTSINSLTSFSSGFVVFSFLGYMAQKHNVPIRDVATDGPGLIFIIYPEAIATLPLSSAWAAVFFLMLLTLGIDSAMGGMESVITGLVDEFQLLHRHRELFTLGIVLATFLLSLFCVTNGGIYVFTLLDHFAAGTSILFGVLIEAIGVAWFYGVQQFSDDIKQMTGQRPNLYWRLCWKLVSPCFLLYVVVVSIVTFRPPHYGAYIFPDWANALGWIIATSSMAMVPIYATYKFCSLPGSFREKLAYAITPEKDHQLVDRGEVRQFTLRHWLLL

| Compound | Selectivity ratio SERT uptake/DAT uptake [1] | Ki [2] [nM] | Selectivity ratio DAT uptake/DAT binding [2] | Ki [3] [nM] | Selectivity ratio NET uptake/DAT uptake [4] | Ki [1] [nM] | time of peak effect on distance traveled [5] [min] | percentage of cocaine-lever responding [6] [%] |
| --- | --- | --- | --- | --- | --- | --- | --- | --- |
| O[C@@H]1CN(C[C@H](O)c2ccccc2)CC[C@H]1CCOC(c1ccccc1)c1ccccc1 [9a′, (3S,4S)-4-(2-(Benzhydryloxy)ethyl)-1-((R)-2-hydroxy-2-phenylethyl)piperidin-3-ol] | 23 | 18.4 ± 9.5 | 0.46 | 40.1 ± 19.2 | 1.5 | – | – | – |
| O[C@H](CN1CC[C@@H](CCOC(c2ccccc2)c2ccccc2)[C@H](O)C1)c1ccccc1 [9b′, (3S,4S)-4-(2-(Benzhydryloxy)ethyl)-1-((S)-2-hydroxy-2-phenylethyl)piperidin-3-ol] | 220 | 1.06 ± 0.42 | 2.2 | 0.486 ± 0.065 | 110 | 231 ± 49 | – | – |
| O[C@@H]1CN(C[C@H](O)c2ccc(F)cc2)CC[C@H]1CCOC(c1ccccc1)c1ccccc1 [9c′, (3S,4S)-4-(2-(benzhydryloxy)ethyl)-1-((R)-2-(4-fluorophenyl)-2-hydroxyethyl)piperidin-3-ol] | 160 | 2.44 ± 0.37 | – | – | 10 | 402 ± 67 | – | – |
| O[C@H](CN1CC[C@@H](CCOC(c2ccccc2)c2ccccc2)[C@H](O)C1)c1ccc(F)cc1 [9d′, (3S,4S)-4-(2-(Benzhydryloxy)ethyl)-1-((S)-2-(4-fluorophenyl)-2-hydroxyethyl)piperidin-3-ol] | 600 | 2.97 ± 0.72 | 1.2 | 2.59 ± 0.66 | 7.0 | 1790 | – | – |
| O[C@@H](CN1CC[C@H](CCOC(c2ccccc2)c2ccccc2)[C@@H](O)C1)c1ccccc1 [Compound 9a, (3R,4R)-4-(2-(Benzhydryloxy)ethyl)-1-((R)-2-hydroxy-2-phenylethyl)-piperidin-3-ol] | 73 | 6.23 ± 2.38 | 0.92 | 6.76 ± 1.75 | 1.2 | 456 ± 102 | 20 to 30 | – |
| O[C@H](CN1CC[C@H](CCOC(c2ccccc2)c2ccccc2)[C@@H](O)C1)c1ccccc1 [Compound 9b, (3R,4R)-4-(2-(Benzhydryloxy)ethyl)-1-((S)-2-hydroxy-2-phenylethyl)piperidin-3-ol] | 33 | 4.69 ± 2.06 | 2.0 | 2.29 ± 0.85 | 17 | 155 ± 26 | – | – |
| O[C@@H](CN1CC[C@H](CCOC(c2ccccc2)c2ccccc2)[C@@H](O)C1)c1ccc(F)cc1 [Compound 9c, (3R,4R)-4-(2-(Benzhydryloxy)ethyl)-1-((R)-2-(4-fluorophenyl)-2-hydroxyethyl)piperidin-3-ol] | 260 | 4.04 ± 1.22 | 2.0 | 2.17 ± 0.67 | 5.4 | 1050 | – | – |
| O[C@H](CN1CC[C@H](CCOC(c2ccccc2)c2ccccc2)[C@@H](O)C1)c1ccc(F)cc1 [Compound 9d, (3R,4R)-4-(2-(Benzhydryloxy)ethyl)-1-((S)-2-(4-fluorophenyl)-2-hydroxyethyl)piperidin-3-ol] | 170 | 1.55 ± 0.27 | 0.59 | 2.65 ± 0.99 | 9.1 | 259 ± 36 | – | – |
| COC(=O)[C@H]1[C@@H](OC(=O)c2ccccc2)C[C@@H]2CC[C@H]1N2C [cocaine] | – | – | – | – | – | – | – | ≥ 80 |
